Results reported in paper PMC10369073, “Production, identification, in silico analysis, and cytoprotection on H2O2-induced HUVECs of novel angiotensin-I-converting enzyme inhibitory peptides from Skipjack tuna roes” (Frontiers in Nutrition, 2023).
Ends that are not written are not given here. Peptide text beside a SMILES is read from it.

Legend:
H2O2-induced HUVECs [1] = assay: Viability of H2O2-induced HUVECs (oxidative damage model); assay type: cell-based, human; conditions: for cell viability of H2O2-induced HUVECs: 200 μM pretreatment 24 h, then 300 μM H2O2 24 h, model group 50.31 ± 2.19%, mean ± SD, n = 3, SD
Description: (§1) The viability of HUVECs treated by TRP3, TRP6, TRP9, and TRP12 was determined using MTT method. HUVECs were seeded in the 96-well plates, cultured for 24 h, and treated with ACEi peptides (100, 200, and 300 μM) at 37° C for 24 h. MTT (final content of 2 mg/mL) was added into cell culture. After 4 h, DMSO was added into each well and monitored at 490 nm. The cell viability (% control) was calculated.
The oxidative damage model of HUVECs was established according to the previous method ([50]). HUVECs were seeded in the 96-well plates, cultured for 24 h, and treated with […] H2O2 at 37°C.
(§2) The HUVECs were cultured for 24 h in a 96-well plate. Subsequently, the supernatant was aspirated and 20 μL of GSH (200 μM) and ACEi peptides (100 or 200 μM) were added in the protection groups, respectively. After 24 h, ACEi peptides were removed and H2O2 with the final concentration of 300 μM was added into the damage and protection groups for incubating 24 h.

H2O2-induced HUVECs [2] = assay: MDA content in H2O2-induced HUVECs (assay kit); assay type: cell-based, human; conditions: 200 μM pretreatment, 300 μM H2O2, model 27.94 ± 1.06, mean ± SD, n = 3
Description: as §2
(§3) The level of ROS was determined using DCFH2-DA assay and expressed as % control ([50]). The levels of SOD (U/mgprot), GSH-Px (U/mgprot), NO (μmol/L), and MDA (nmol/mgprot) were measured using assay kits according to manufacturer’ protocols.

H2O2-induced HUVECs [3] = assay: NO production in H2O2-induced HUVECs (assay kit); assay type: cell-based, human; conditions: 200 μM pretreatment, 300 μM H2O2, model 15.54 ± 0.68 μM, mean ± SD, n = 3
Description: as §2, §3

H2O2-induced HUVECs [4] = assay: Apoptosis rate of H2O2-induced HUVECs, Hoechst 33342; assay type: cell-based, human; conditions: 200 μM pretreatment, 300 μM H2O2, model 214.03 ± 7.11% control, mean ± SD, n = 3
Description: as §2
Cell treatments with ACEi peptides, GSH, and H2O2 were according to the above method ([50]). The morphology of HUVECs was observed and photographed using an inverted microscope (Nikon Corporation, Kyoto, Japan). The percentage of apoptotic HUVECs was analyzed using previous methods ([17], [50]).

ACE = biological target: T1, ACE (Oryctolagus cuniculus, UniProt P12822); assay: ACE inhibitory (ACEi) activity, FAPGG substrate, hippuric acid by HPLC at 228 nm; assay type: biochemical; conditions: at 1.5 mg/mL, mean ± SD, n = 3
T1 sequence (P12822 34-1310): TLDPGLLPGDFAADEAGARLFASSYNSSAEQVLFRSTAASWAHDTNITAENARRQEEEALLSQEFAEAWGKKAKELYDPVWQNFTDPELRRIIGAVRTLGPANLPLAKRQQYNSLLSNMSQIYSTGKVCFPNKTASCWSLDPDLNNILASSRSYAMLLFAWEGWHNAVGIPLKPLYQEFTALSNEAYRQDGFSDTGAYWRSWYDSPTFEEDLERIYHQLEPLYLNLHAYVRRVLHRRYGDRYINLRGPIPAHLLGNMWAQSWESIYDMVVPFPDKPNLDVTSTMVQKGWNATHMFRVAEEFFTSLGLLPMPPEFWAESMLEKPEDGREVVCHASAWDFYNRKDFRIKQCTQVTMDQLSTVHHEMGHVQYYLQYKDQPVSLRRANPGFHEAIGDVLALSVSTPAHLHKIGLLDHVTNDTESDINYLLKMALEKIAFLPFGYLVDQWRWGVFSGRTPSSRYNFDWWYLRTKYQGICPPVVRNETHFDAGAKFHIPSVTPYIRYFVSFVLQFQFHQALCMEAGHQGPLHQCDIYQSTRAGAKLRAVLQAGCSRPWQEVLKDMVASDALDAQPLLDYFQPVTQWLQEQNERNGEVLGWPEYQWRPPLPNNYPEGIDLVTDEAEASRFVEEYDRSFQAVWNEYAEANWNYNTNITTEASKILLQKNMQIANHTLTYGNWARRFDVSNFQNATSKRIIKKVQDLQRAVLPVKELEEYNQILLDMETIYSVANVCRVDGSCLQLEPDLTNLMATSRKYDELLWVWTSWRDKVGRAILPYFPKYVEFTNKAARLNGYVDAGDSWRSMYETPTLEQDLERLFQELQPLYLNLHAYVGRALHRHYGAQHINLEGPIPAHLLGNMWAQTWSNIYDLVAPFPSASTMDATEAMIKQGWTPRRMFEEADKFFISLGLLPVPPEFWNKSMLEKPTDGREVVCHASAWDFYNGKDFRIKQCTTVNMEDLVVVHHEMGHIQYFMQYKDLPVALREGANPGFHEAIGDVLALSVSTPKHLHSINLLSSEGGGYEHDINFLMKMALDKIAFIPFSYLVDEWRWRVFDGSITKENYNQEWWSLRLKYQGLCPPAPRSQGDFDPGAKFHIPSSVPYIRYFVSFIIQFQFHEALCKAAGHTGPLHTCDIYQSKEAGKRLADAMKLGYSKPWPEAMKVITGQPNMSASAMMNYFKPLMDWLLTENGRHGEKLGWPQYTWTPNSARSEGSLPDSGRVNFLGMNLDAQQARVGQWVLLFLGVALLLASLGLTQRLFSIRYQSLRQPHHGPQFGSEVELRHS
Description: The ACEi activity was measured by employing FAPGG as the substrate with the following modifications reported by Zhao et al. ([18]). In brief, the initial assay volume consisted of 50 μL of the substrate (3 mM), 50 μL of the ACE enzyme solution containing 1.25 mU of declared enzyme activity, and 50 μL of assay sample. All these solutions were incubated for 30 min at 37°C in a water bath first without mixing and then for an additional 30 min after mixing. ACE activity was stopped by 150 μL of glacial acetic acid. After that, the reaction mixture was separated by HPLC at 228 nm to determine the hippuric acid (HA) content produced due to ACE activity on the substrate. The control reaction mixture contained 50 μL of buffer instead of the assay sample and the control was expected to liberate the maximum amount of HA from the substrate due to uninhibited ACE activity. The percent inhibition of ACE activity was calculated as follows:
Inhibition activity(%)=[(HAcontrol−HAsample)/HAcontrol]×100%.
The IC50 value is the concentration of peptide inhibiting 50% activity of ACE.

H2O2-induced HUVECs [5] = assay: ROS level in H2O2-induced HUVECs, DCFH2-DA assay; assay type: cell-based, human; conditions: 200 μM pretreatment, 300 μM H2O2, model 146.6 ± 3.81%, mean ± SD, n = 3
Description: as §2, §3

H2O2-induced HUVECs [6] = assay: GSH-Px activity in H2O2-induced HUVECs (assay kit); assay type: cell-based, human; conditions: 200 μM pretreatment, 300 μM H2O2, model 26.95 ± 1.09, mean ± SD, n = 3
Description: as §2, §3

HUVECs [7] = assay: NO production in HUVECs (assay kit); assay type: cell-based, human; conditions: for NO content in NE-treated HUVECs: peptide 200 μM plus NE, NE alone 18.59 ± 0.82 μM; for NO level in HUVECs: peptide 200 μM, 24 h, control 33.68 ± 0.96 μM, mean ± SD, n = 3, SD
Description: (§4) HUVECs were cultured in DMEM supplemented with 100 µg/mL streptomycin, 10% FBS (v/v), and 100 U/mL penicillin at 37°C in a humidified 5% CO2 atmosphere for 24 h.
(§5) After treating with ACEi peptides (TRP3, TRP6, TRP9, or TRP12, respectively) for 24 h, NO and ET-1 contents were separately determined by employing human NO and ET-1 assay kit as per manufactures’ protocol ([18]).

HUVECs [8] = assay: ET-1 secretion in HUVECs (assay kit); assay type: cell-based, human; conditions: for ET-1 content in NE-treated HUVECs: peptide 200 μM plus NE, NE alone 73.57 ± 3.09 pg./mL; for ET-1 content in HUVECs: peptide 200 μM, control 55.37 ± 2.53 pg./mL, mean ± SD, n = 3, SD
Description: as §4, §5

H2O2-induced HUVECs [9] = assay: SOD activity in H2O2-induced HUVECs (assay kit); assay type: cell-based, human; conditions: 200 μM pretreatment, 300 μM H2O2, model 108.57 ± 7.56, mean ± SD, n = 3
Description: as §2, §3

HUVECs [10] = assay: Viability of HUVECs, MTT method; assay type: cell-based, human
Description: as §4, §1

Compound | cell viability of H2O2-induced HUVECs (H2O2-induced HUVECs [1]) [%] | MDA content (H2O2-induced HUVECs [2]) [nmol/mg prot] | NO content (H2O2-induced HUVECs [3]) [µM] | total apoptosis ratio (H2O2-induced HUVECs [4]) [% control] | viability of HUVECs (H2O2-induced HUVECs [1]; H2O2 300 μM alone (model establishment)) [%] | ACEi rate (ACEi activity) (ACE) [%] | ROS level (H2O2-induced HUVECs [5]) [% control] | GSH-Px activity (H2O2-induced HUVECs [6]) [U/mg prot] | NO content in NE-treated HUVECs (HUVECs [7]) [µM] | NO level in HUVECs (HUVECs [7]) [µM] | ET-1 content in NE-treated HUVECs (HUVECs [8]) [pg/mL] | ET-1 content in HUVECs (HUVECs [8]) [pg/mL] | SOD activity (H2O2-induced HUVECs [9]) [U/mg prot] | cell viability (HUVECs [10]; 300 μM, 24 h, MTT, % control, mean ± SD, n = 3) [%] | cell viability (HUVECs [10]; 300 µM, SD) [%]
N[C@@H](CCC(=O)N[C@@H](CS)C(=O)NCC(=O)O)C(=O)O [GSH, Glutathione, reference compound] | 78.33 ± 3.08 | 17.83 ± 0.87 | 26.98 ± 1.05 | 124.52 ± 4.82 | – | – | – | – | – | – | – | – | – | – | –
OO [H2O2] | – | – | – | – | 49.65 ± 1.68 | – | – | – | – | – | – | – | – | – | –
CC[C@H](C)[C@H](N)C(=O)N[C@@H](CCCCN)C(=O)N[C@@H](CO)C(=O)N[C@@H](Cc1c[nH]c2ccccc12)C(=O)O [TRP6, Ile-Lys-Ser-Trp] (H-IKSW-OH; N-terminus and C-terminus assumed) | – | 20.52 ± 0.92 | 21.26 ± 0.59 | 171.21 ± 6.92 | – | 75.41 ± 2.56 | 127.5 ± 4.32 | 42.35 ± 1.86 | 26.51 ± 1.06 | 46.25 ± 1.39 | 55.27 ± 2.19 | 44.68 ± 1.69 | 160.02 ± 9.04 | – | –
CSCC[C@H](NC(=O)[C@H](Cc1c[nH]cn1)NC(=O)[C@H](CO)NC(=O)[C@@H](N)Cc1ccc(O)cc1)C(=O)O [TRP9, Tyr-Ser-His-Met] (H-YSHM-OH) | 67.85 ± 3.05 | 19.88 ± 0.75 | 23.64 ± 0.82 | 135.37 ± 4.28 | – | 83.49 ± 3.42 | 122.4 ± 4.47 | 45.36 ± 2.07 | 28.79 ± 0.78 | 50.34 ± 1.45 | 53.27 ± 2.34 | 41.26 ± 2.09 | – | 91.27 ± 4.05 | –
H-WGESF-OH [TRP3, Trp-Gly-Glu-Ser-Phe] | – | 21.76 ± 0.94 | 20.38 ± 0.67 | 173.12 ± 5.11 | – | 69.54 ± 3.09 | 128.7 ± 5.2 | 38.46 ± 1.25 | 23.69 ± 1.18 | 46.52 ± 1.29 | 59.74 ± 2.42 | 46.87 ± 2.03 | 154.58 ± 3.94 | – | 86.72 ± 4.45
WSPGF [TRP12, Trp-Ser-Pro-Gly-Phe] | – | 21.08 ± 0.92 | 22.09 ± 0.81 | 162.08 ± 5.94 | – | 78.24 ± 2.81 | 123.7 ± 3.21 | 39.75 ± 1.63 | 26.79 ± 1.34 | 46.32 ± 2.03 | 54.71 ± 2.57 | 45.28 ± 1.88 | – | – | –
